Series [1] concerns the target T1, hMetAP2 (Homo sapiens, UniProt P50579).
T1 construct: made in house
Kind of series: MetAP enzymatic assay, hMetAP2. The series is classed as biochemical.

Series [2] has as its target T2, hMetAP1 (Homo sapiens, UniProt P53582).
T2 construct: made in house
Kind of series: MetAP enzymatic assay, hMetAP1. The series is classed as biochemical.

Series [3] concerns HUVEC. Kind of series: HUVEC proliferation, [3H]-thymidine incorporation assay. The series is classed as cell-based, human. The procedure: HCC1954 cells were grown in RPMI1640 containing 10% FBS. HUVEC were grown using the EGM-2 bullet kit (Cambrex) as per manufacturer's instructions. The cells were maintained in a humidified incubator adjusted to 5% CO2. For drug screening, 10 mM stock solutions of Johns Hopkins Drug Library were arrayed in 96-well plates and screened at a final concentration of 10 μM. The cell growth was determined using a [^3H]-thymidine incorporation assay. Cells (typically 5,000 cells/well) were seeded in 96-well plates containing 0.2 ml of growth media and allowed to adhere for 24 h. The cells were then treated with drugs for 24 h. Cells were pulsed with 1 μCi [^3H]-thymidine (MP Biomedicals, 6.7 Ci mmol^−1) for 8 h and harvested, upon trypsin treatment, onto glass fiber filters (Wallac, Turku, Finland), from which ^3H counts were determined using a Perkin Elmer MicroBeta plate reader.
(Dividing cells build labelled thymidine or BrdU into new DNA.)

The subject of series [4] is HFF. Kind of series: HFF proliferation (selectivity). The series is classed as cell-based.
The test system of series [5] is acetylation of p53 (K382), α-tubulin and histone-H3. The experiment in a line: Acetylation status of sirtuin substrates in HUVEC (Western blot). The series is classed as cell-based, human. The following applies: HUVEC; for acetylation status of tubulin or histone-H3: 6 h or 20 h. The method, then:
Cells were lysed by adding 1 volume of 2× Laemmli buffer and were then boiled for 5 min. The samples were separated by SDS-PAGE and transferred to nitrocellulose membrane (Bio-Rad). Proteins were detected using primary antibodies for p53 (Santa Cruz), met-14-3-3γ (Novus), p21 (Santa Cruz), Rb (Santa Cruz), MetAP2 (Hu, X. et al (2006) Proc. Natl. Acad. Sci. U.S.A. 103, 18148-18153), SirT1 (Santa Cruz), acetyl-p53-K382 (Abeam), acetyl-tubulin (Sigma), histone-H3 (Santa Cruz), acetyl-H3 (Santa Cruz) and α-tubulin (TU-02, Santa Cruz) followed by the incubation with horseradish peroxidase (HRP)-conjugated anti-mouse or anti-rabbit antibodies (Santa Cruz) and enhanced chemiluminescence (ECL, Amersham).

In series [6] the test system is HUVEC. The experiment in a line: Senescence associated-β-galactosidase (SA-β-gal) staining in HUVEC. The series is classed as cell-based, human. The method, then:
Cells in 6-well plates were washed with PBS and fixed with 3% paraformaldehyde. After washing with PBS, the cells were incubated for 24 h at 37° C. (without CO2, protected from light) in freshly prepared SA-β-gal staining solution containing 1 mg/ml 5-bromo-4-chloro-3-indolyl β-D-galactopyranoside (X-gal), 5 mM potassium ferrocyanide, 5 mM potassium ferricyanide, 150 mM NaCl, 2 mM MgCl2 and 40 mM citric acid, titrated with NaH2PO4 to pH 6.0. SA-β-gal solution was then removed and the cells were washed with PBS. The stained cells were observed under a microscope.

[7] abbreviates: hMetAP2 Co^2+ IC50, Table 2, in the presence of Co^2+.
[8] abbreviates: read-out: hMetAP1 Co^2+ IC50, Table 2, in the presence of Co^2+.
[9] abbreviates: Homo sapiens, HUVEC, read-out: Selectivity HUVEC IC50.
Where [10] appears, read: Table 2, in the presence of Co^2+, read-out: hMetAP2 Co^2+ IC50.
Where [11] appears, read: Table 2, in the presence of Co^2+, read-out: hMetAP1 Co^2+ IC50.
Where [12] appears, read: Table 2, in the presence of Mn^2+, read-out: hMetAP1 Mn^2+ IC50.
The mark [13] stands for this setting: Table 3, in the presence of Co^2+, read-out: hMetAP2 Co^2+ IC50.
The mark [14] stands for this setting: Table 3, in the presence of Mn^2+, read-out: hMetAP2 Mn^2+ IC50.
[15] abbreviates: Table 3, in the presence of Co^2+, read-out: hMetAP1 Co^2+ IC50.
Setting [16] is: Table 3, in the presence of Mn^2+, read-out: hMetAP1 Mn^2+ IC50.
The mark [17] stands for this setting: Table 3, read-out: Selectivity HUVEC IC50.
[18] abbreviates: Homo sapiens, HUVEC, Table 4, read-out: HUVEC IC50.

Read-outs that look alike come from different tables or passages of the source.

T1 sequence (P50579 whole entry): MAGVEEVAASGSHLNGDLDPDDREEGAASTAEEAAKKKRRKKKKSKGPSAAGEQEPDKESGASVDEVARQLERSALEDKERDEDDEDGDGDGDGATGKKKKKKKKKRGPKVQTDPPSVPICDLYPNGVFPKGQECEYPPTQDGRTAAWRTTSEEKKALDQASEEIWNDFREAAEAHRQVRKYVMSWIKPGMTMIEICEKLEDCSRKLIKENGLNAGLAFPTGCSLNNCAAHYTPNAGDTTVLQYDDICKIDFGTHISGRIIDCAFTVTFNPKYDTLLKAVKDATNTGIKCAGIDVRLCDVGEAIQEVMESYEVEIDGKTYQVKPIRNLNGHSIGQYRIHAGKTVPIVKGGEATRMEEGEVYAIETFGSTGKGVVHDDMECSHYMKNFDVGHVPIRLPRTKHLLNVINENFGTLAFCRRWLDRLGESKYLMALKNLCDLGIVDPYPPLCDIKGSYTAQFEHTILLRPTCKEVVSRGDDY

As for `Oc1cccc2cccnc12` [Entry 1a], the concentration for half-maximal inhibition (IC50) in series [1] (setting [7]) is greater than 50 µM; in series [1] (hMetAP2 Mn^2+ IC50, Table 2, in the presence of Mn^2+), 2 µM; in series [2] (setting [8]), greater than 50 µM; in series [3] (setting [9]), 6.2 µM; in series [4] (Homo sapiens, HFF, Table 2), 6.6 µM.

For `O=S(=O)(O)c1ccc(O)c2ncccc12` [Entry 1d], the IC50 in series [1] (setting [7]) is greater than 50 µM; in series [3] (setting [9]), greater than 50 µM; in series [4] (Homo sapiens, HFF, Table 2) it was greater than 50 µM.

With `OCCN(CCO)Cc1cc(Cl)c2cccnc2c1O` [Entry 2a, 5-Chloro-7-(N,N-bis(2-hydroxyethyl)aminomethyl)-8-hydroxy-quinoline], the IC50 in series [1] (setting [10]), in series [2] (setting [11]) and in series [2] (setting [12]) was greater than 50 µM each time.

Turning to `Oc1c(C(c2ccccc2)N2CCOCC2)cc(Cl)c2cccnc12` (stereo not drawn) [Entry 2f, 5-Chloro-7-(1-phenyl-1-(N-morpholino)-methyl)-8-hydroxy-quinoline], the melting point was found to be 89 °C.

`Oc1c(C(Nc2nccs2)c2ccco2)cc(Cl)c2cccnc12` (stereo not drawn) [Entry 2g, 5-Chloro-7-(1-(2-furyl)-1-(2-thiazolylamino)-methyl)-8-hydroxy-quinoline] gave a melting point of 126 °C. For the same compound, the IC50 in series [1] (setting [10]) is greater than 50 µM. Also, in series [1] (Table 2, in the presence of Mn^2+, read-out: hMetAP2 Mn^2+ IC50), the IC50 is 2.8 µM. Moreover, the IC50 in series [2] (setting [11]) is greater than 50 µM. In addition, the 50% inhibitory concentration (IC50) in series [2] (setting [12]) is greater than 50 µM. Besides, the IC50 in series [3] (Homo sapiens, HUVEC, Table 2, read-out: Selectivity HUVEC IC50) was found to be 2.5 µM. In series [4] (Homo sapiens, HFF, Table 2), this compound came in with a 50% inhibitory concentration (IC50) of 13.5 µM.

Consider `C=CCOc1ccc(Cl)c2cccnc12` [Entry 3a, 8-Allyloxy-5-chloroquinoline], for which the concentration for half-maximal inhibition (IC50) was greater than 50 µM in series [1] (read-out: hMetAP2 Co^2+ IC50, Table 2, in the presence of Co^2+) and greater than 50 µM in series [2] (setting [8]).

In the case of `O=C(Nc1cc(Cl)cc(Cl)c1)Oc1c(Cl)cc(Cl)c2cccnc12` [Entry 4b, 5,7-Dichloro-8-quinolyl-N-(3,5-dichlorophenyl)-carbamate], the IC50 in series [1] (setting [13]) is greater than 50 µM; in series [1] (setting [14]) it was 0.9 µM; in series [2] (setting [15]), greater than 50 µM; in series [2] (setting [16]), greater than 50 µM; in series [3] (setting [17]), 0.11 µM; in series [4] (Table 3), 3 µM.

As for `O=C(Nc1cc(Cl)cc(Cl)c1)Oc1ccc(Cl)c2cccnc12` [Entry 4c, 5-Chloro-8-quinolyl-N-(3,5-dichlorophenyl)-carbamate], the concentration for half-maximal inhibition (IC50) in series [1] (setting [13]) is 2.2 µM; in series [1] (setting [14]) it was 0.07 µM; in series [2] (setting [15]), greater than 50 µM; in series [2] (setting [16]), 12.6 µM; in series [3] (setting [17]) it was 1.2 µM; in series [4] (Table 3) it was 8 µM.

Regarding `O=C(Nc1ccccc1)Oc1c(Cl)cc(Cl)c2cccnc12` [Entry 4d, 5,7-Dichloro-8-quinolyl-N-phenylcarbamate], the 50% inhibitory concentration (IC50) in series [1] (setting [13]) was greater than 50 µM; in series [1] (setting [14]) it was 1.6 µM; in series [2] (setting [15]) it was greater than 50 µM; in series [2] (setting [16]) it was greater than 50 µM; in series [4] (Table 3), 15.3 µM.

`O=C(Nc1ccccc1)Oc1ccc(Cl)c2cccnc12` [Entry 4e, 5-Chloro-8-quinolyl-N-phenylcarbamate]: the concentration for half-maximal inhibition (IC50) was 1.9 µM in series [1] (setting [13]); 0.03 µM in series [1] (setting [14]); greater than 50 µM in series [2] (setting [15]); 11.9 µM in series [2] (setting [16]); 2.1 µM in series [3] (setting [17]); 8.8 µM in series [4] (Table 3).

Turning to `O=C(Nc1ccc(F)cc1)Oc1c(Cl)cc(Cl)c2cccnc12` [Entry 4f, 5,7-Dichloro-8-quinolyl-N-(4-fluorophenyl)-carbamate], the IC50 was greater than 50 µM in series [1] (setting [13]); 3.1 µM in series [1] (setting [14]); greater than 50 µM in series [2] (setting [15]); greater than 50 µM in series [2] (setting [16]); 37 µM in series [4] (Table 3).

With `O=C(Nc1cc(F)cc(F)c1)Oc1ccc(Cl)c2cccnc12` [Entry 4g, 5-Chloro-8-quinolyl-N-(3,5-difluorophenyl)-carbamate], the IC50 in series [1] (setting [13]) is 45.7 µM; in series [1] (setting [14]), 1.8 µM; in series [2] (setting [15]), greater than 50 µM; in series [2] (setting [16]) it was greater than 50 µM; in series [4] (Table 3), 16.1 µM.

In the case of `O=C(NCCCl)Oc1ccc(Cl)c2cccnc12` [Entry 4h, 5-Chloro-8-quinolyl-N-(2-chloroethyl)-carbamate], the values for the half-maximal inhibitory concentration (IC50) in series [3] (setting [17]) and in series [4] (Table 3) were 2.3 µM and 8.4 µM, respectively.

With `O=C(NCCCl)Oc1c(Cl)cc(Cl)c2cccnc12` [Entry 4i, 5,7-Dichloro-8-quinolyl-N-(2-chloroethyl)-carbamate], the IC50 is greater than 50 µM in series [2] (setting [15]), greater than 50 µM in series [2] (setting [16]), 2.4 µM in series [3] (setting [17]) and 11.1 µM in series [4] (Table 3).

As for `Cc1ccc2c([N+](=O)[O-])cc([N+](=O)[O-])c(O)c2n1` [Entry 5b, 2-Methyl-5,7-dinitro-8-hydroxy-quinoline], the half-maximal inhibitory concentration (IC50) in series [3] (setting [18]) came out at 17.3 µM.

With `CC(C)(C)OC(=O)Oc1ccc([N+](=O)[O-])c2cccnc12` [Entry 5c, 5-Nitro-8-tert-butoxycarbonyloxyquinoline], the IC50 in series [3] (setting [18]) is 0.29 µM.

`CCOC(=O)COc1ccc([N+](=O)[O-])c2cccnc12` [Entry 5d, Ethyl 1-(5-Nitro-quinolin-8-yloxy)-acetate]: the half-maximal inhibitory concentration (IC50) in series [3] (Table 4, read-out: HUVEC IC50) is 7.3 µM.

Turning to `NC(=O)COc1ccc([N+](=O)[O-])c2cccnc12` [Entry 5e, 1-(5-Nitro-quinolin-8-yloxy)-acetamide], in series [3] (Table 4, read-out: HUVEC IC50), the 50% inhibitory concentration (IC50) was 6.3 µM.

For the compound `CC(/C=C/C(=O)NO)=C\[C@@H](C)C(=O)c1ccc(N(C)C)cc1` [TSA], in series [5], the “acetylation status of tubulin or histone-H3” value is reported as “induced hyper-acetylation”. Besides, the p53 acetylation entry in series [5] (early time point) is reported as “increased p53 acetylation”.

For the compound `CC(NC(=O)c1ccccc1/N=C/c1c(O)ccc2ccccc12)c1ccccc1` (stereo not drawn) [sirtinol], the “acetylation status of tubulin or histone-H3” value in series [5] is recorded as “induced hyper-acetylation”.

As to `CCCC(CCC)C(=O)O` [valproic acid], the “premature senescence in HUVEC” value in series [6] (72 h, valproic acid 0.1 mM, TNP-470 20 nM) is given as “induced premature senescence”. Also, the reversibility of senescence result in series [6] (72 h treatment, then fresh media for an additional 48 h) is given as “reversed their senescence state”.

What is called IC50 is the concentration needed to halve the response being measured. For orientation: melting point means the temperature, or range, at which the solid turns liquid.

Values taken from US8729097B2, “Quinoline compounds as inhibitors of angiogenesis, human methionine aminopeptidase, and SIRT1, and methods of treating disorders” (The Johns Hopkins University, priority 2008, dated 2014).
